Results from US20220197161A1, “ELECTROPHOTOGRAPHIC PHOTOCONDUCTOR, METHOD OF MANUFACTURING THE SAME, AND ELECTROPHOTOGRAPHIC EQUIPMENT” (FUJI ELECTRIC CO., LTD., priority 2020, published 2022).

Test: solubility SETM (THF): mass of tetrahydrofuran required to dissolve 1 g of the azoquinone derivative
Format: physicochemical
Conditions: mass (g) of tetrahydrofuran required to dissolve 1 g of the azoquinone derivative
Excerpt: The solubility SETM (THF) of the azoquinone derivative having a structure represented by the general formula (ET1) (the mass (g) of tetrahydrofuran required to dissolve 1 g of the azoquinone derivative) preferably satisfies the following inequality:
For the azoquinone derivative having a structure represented by the general formula (ET1) in a preferred embodiment, the solubility SETM (THF), as represented by the mass (g) of tetrahydrofuran required to dissolve 1 g of the electron transport materials), of the electron transport materials also satisfies the following inequality:
The solubility SETM (THF) of the azoquinone derivative, as represented by the mass (g) of tetrahydrofuran required to dissolve 1 g of the azoquinone derivative having a structure represented by the above structural formula (ET1-4)), was 1 (g).

| SMILES | solubility SETM (THF) |
| --- | --- |
| CC(C)(C)C1=CC(=CN=Nc2c(Cl)cccc2Cl)C=C(C(C)(C)C)C1=O [ET1-3] | ≤ 1 g |
| CC(C)(C)C1=CC(=CN=Nc2cc(Cl)ccc2Cl)C=C(C(C)(C)C)C1=O [ET1-4] | 1 g |
| CC(C)(C)C1=CC(=CN=Nc2c(Cl)cc(Cl)cc2Cl)C=C(C(C)(C)C)C1=O [ET1-5] | 1 g |
| CC(C)(C)C1=CC(=CN=Nc2ccc(Cl)cc2)C=C(C(C)(C)C)C1=O [ET-1] | 3 g |
| CC(C)(C)C1=CC(=CN=Nc2ccc(F)cc2F)C=C(C(C)(C)C)C1=O [ET-2] | 15 g |
| CC(C)(C)C1=CC(=CN=Nc2c(F)c(F)c(F)c(F)c2F)C=C(C(C)(C)C)C1=O [ET-3] | 22 g |
